Each block holds one compound with its values, some of them ahead of it.
Test system: 966289-007-R4-J1-PDC complex spheroid viability
Experiment: Anticancer human tumor 966289-007-R4-J1-PDC patient-derived pancreatic adenocarcinoma cell line growth inhibition [GQUAD]
Details: for IC50: curve of first compound; for viability, T/C: stronger effect = lower value
Source text: DNA G-quadruplex Stabilizer Agents in Combinations in Complex Spheroids
A high-throughput screen of multi-cell type tumor spheroids was designed to identify active combinations of DNA G-quadruplex stabilizer agents and targeted small molecules. Complex spheroids include a stromal component modeled by human endothelial cells (HUVEC) and fibroblasts modeled by human mesenchymal stem cells (MSCs). The concentration ranges selected for each drug and investigational agent were based upon clinically achievable concentrations if the clinical Cmax of the agent was known.
Compounds. The drugs and investigational agents: pidnarulex (CX-5461; NSC782164), APTO-253 (NSC789042), BRACO-19 (NSC847499), peposertib (NSC802822), ceralasertib (NSC780249), elimusertib (NSC800525), camonsertib (NSC841442), AZD-1390 (NSC803789), olaparib (NSC753686), talazoparib (NSC767125), ART-558 (NSC835418), sotorasib (NSC818433), MRTX-1133 (NSC836407), SN-38 (NSC673596), topotecan (NSC609699), etoposide (NSC141540), doxorubicin (NSC123127), gemcitabine (NSC613327), 5-fluorouracil (NSC19893), paclitaxel (NSC125973), vemurafenib (NSC761431), panobinostat (NSC761190), R-306465 (JNJ-16241199; NSC773264), adavosertib (NSC754352), TP-3654 (NSC805149), carboplatin (NSC241240), KSQ-4279 (NSC840948), and staurosporine (NSC755774) were obtained from the National Cancer Institute (NCI) Developmental Therapeutics Program Chemical Repository (34). The FDA-approved anticancer drug set is available from the NCI Developmental Therapeutics Program. […] The stock solutions were prepared in dimethyl sulfoxide (DMSO, Sigma-Aldrich, St. Louis, MO, cat. D2650) at 800-fold the tested concentration and stored at -70 degrees C prior to their use. All drugs and investigational agents were tested over a range starting from a high concentration at or near the clinical Cmax and decreasing in half-log increments. If the clinical Cmax for an agent had not been determined, the highest concentration tested was 10 microM.
2.3 Cell Culture. All cells were maintained in an incubator at 37 degrees C and 5% CO2 with 95% humidity. The PDC lines were cultured according to standard operating procedures established by the NCI PDMR. All PDCs were thawed and cultured in Matrigel-coated flasks prepared with a working solution of 1X Ham's F-12 nutrient mix, without supplementation (Invitrogen, cat. 11765054), 100 U/mL penicillin-streptomycin (Invitrogen, cat. 15140122), and 2.5% Matrigel (Corning Inc., cat. 354248) for the first three passages. The 857933-349-R-J2-PDC line was cultured in 6C/Colon 1B media, which includes advanced DMEM/F-12 (Thermo Fisher Scientific, cat. 12634028), 10 mM HEPES (Thermo Fisher Scientific, cat. 15630080), 1X GlutaMAX supplement (Thermo Fisher Scientific, cat. 35050061), 0.1 mg/mL primocin (InvivoGen, cat. ant-pm-2), 10% defined fetal bovine serum, heat inactivated (HyClone Laboratories Inc., cat. SH30070.03HI), 50% L-WRN conditioned media (ATCC, cat. CRL-3276), 1.25 mM N-Acetyl-L-cysteine (Sigma-Aldrich, cat. A9165), 10 mM nicotinamide (Sigma-Aldrich, cat. N0636), 1X B-27 supplement (Thermo Fisher Scientific, cat. 17504044), 1X N-2 supplement (Thermo Fisher Scientific, cat. 17502048), 10 microM Y-27632 dihydrochloride (Tocris Bioscience, cat. 1254), and 50 ng/mL human EGF recombinant protein (Thermo Fisher Scientific, cat. PHG0311). The 485176-168-R4-J1-PDC line was cultured in Panc media, which includes all 6C/Colon 1B media components plus 100 ng/mL human FGF-10 (Thermo Fisher Scientific, cat. 100-26), 500 nM SB-431542 (Selleckchem, cat. S1067), and gastrin (Tocris, cat. 3006).
[…]

[1] = second compound 0.0316 µM, first compound 0.0316 µM
[2] = second compound 0.0316 µM, first compound 0.316 µM
[3] = second compound 0.1 µM, first compound 0.0316 µM
[4] = second compound 0.1 µM, first compound 0.316 µM
[5] = second compound 0.316 µM, first compound 0.0316 µM
[6] = second compound 0.316 µM, first compound 0.316 µM
[7] = second compound 1 µM, first compound 0.0316 µM
[8] = second compound 1 µM, first compound 0.316 µM
[9] = second compound 3.16 µM, first compound 0.0316 µM
[10] = second compound 3.16 µM, first compound 0.316 µM
[11] = second compound 10 µM, first compound 0.0316 µM
[12] = second compound 10 µM, first compound 0.316 µM
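Further: spheroids exposed to the agents for seven days before readout.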
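Wherever viability, T/C is given: percent viability relative to DMSO vehicle control wells taken as 100%.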

SMILES: Cc1[nH]c2ccccc2c1CCNCc1ccc(/C=C/C(=O)NO)cc1 + Cc1[nH]c2ccc(F)cc2c1-c1nc2c3cccnc3c3ncccc3c2[nH]1
IC50 (second compound 0.0316 µM): 76 nM
IC50 (second compound 0.1 µM): 92.8 nM
IC50 (second compound 0.316 µM): 95.8 nM
IC50 (second compound 1 µM): 127 nM
IC50 (second compound 3.16 µM): 79.7 nM
IC50 (second compound 10 µM): 104 nM
viability, T/C (second compound 0.0316 µM, first compound 0.000999 µM): 110%
viability, T/C (second compound 0.0316 µM, first compound 0.00316 µM): 104%
viability, T/C (second compound 0.0316 µM, first compound 0.00999 µM): 107%
viability, T/C [1]: 103%
viability, T/C (second compound 0.0316 µM, first compound 0.0999 µM): 33.6%
viability, T/C [2]: 4.95%
viability, T/C (second compound 0.1 µM, first compound 0.000999 µM): 111%
viability, T/C (second compound 0.1 µM, first compound 0.00316 µM): 109%
viability, T/C (second compound 0.1 µM, first compound 0.00999 µM): 111%
viability, T/C [3]: 105%
viability, T/C (second compound 0.1 µM, first compound 0.0999 µM): 46.2%
viability, T/C [4]: 5.29%
viability, T/C (second compound 0.316 µM, first compound 0.000999 µM): 106%
viability, T/C (second compound 0.316 µM, first compound 0.00316 µM): 108%
viability, T/C (second compound 0.316 µM, first compound 0.00999 µM): 113%
viability, T/C [5]: 107%
viability, T/C (second compound 0.316 µM, first compound 0.0999 µM): 47.8%
viability, T/C [6]: 6.15%
viability, T/C (second compound 1 µM, first compound 0.000999 µM): 98.5%
viability, T/C (second compound 1 µM, first compound 0.00316 µM): 103%
viability, T/C (second compound 1 µM, first compound 0.00999 µM): 111%
viability, T/C [7]: 108%
viability, T/C (second compound 1 µM, first compound 0.0999 µM): 61.5%
viability, T/C [8]: 5.78%
viability, T/C (second compound 3.16 µM, first compound 0.000999 µM): 107%
viability, T/C (second compound 3.16 µM, first compound 0.00316 µM): 114%
viability, T/C (second compound 3.16 µM, first compound 0.00999 µM): 117%
viability, T/C [9]: 110%
viability, T/C (second compound 3.16 µM, first compound 0.0999 µM): 35.4%
viability, T/C [10]: 5.51%
viability, T/C (second compound 10 µM, first compound 0.000999 µM): 110%
viability, T/C (second compound 10 µM, first compound 0.00316 µM): 104%
viability, T/C (second compound 10 µM, first compound 0.00999 µM): 114%
viability, T/C [11]: 93.5%
viability, T/C (second compound 10 µM, first compound 0.0999 µM): 52.2%
viability, T/C [12]: 5.13%

IC50 (second compound 0.0316 µM): > 10000 nM
IC50 (second compound 0.1 µM): < 31.6 nM
IC50 (second compound 0.316 µM): < 31.6 nM
IC50 (second compound 1 µM): < 31.6 nM
IC50 (second compound 3.16 µM): < 31.6 nM
IC50 (second compound 10 µM): < 31.6 nM
SMILES: C=CC(=O)N1CCN(c2nc(=O)n(-c3c(C)ccnc3C(C)C)c3nc(-c4c(O)cccc4F)c(F)cc23)C(C)C1 (centres undefined) + Cc1cnc(CNC(=O)c2c(=O)c3ccc(N4CCCN(C)CC4)nc3n3c2sc2ccccc23)cn1
viability, T/C [1]: 109%
viability, T/C (second compound 0.0316 µM, first compound 0.1 µM): 102%
viability, T/C [2]: 112%
viability, T/C (second compound 0.0316 µM, first compound 1 µM): 98%
viability, T/C (second compound 0.0316 µM, first compound 3.16 µM): 103%
viability, T/C (second compound 0.0316 µM, first compound 10 µM): 88.2%
viability, T/C [3]: 31.1%
viability, T/C (second compound 0.1 µM, first compound 0.1 µM): 37.4%
viability, T/C [4]: 37.1%
viability, T/C (second compound 0.1 µM, first compound 1 µM): 31.9%
viability, T/C (second compound 0.1 µM, first compound 3.16 µM): 37%
viability, T/C (second compound 0.1 µM, first compound 10 µM): 25.3%
viability, T/C [5]: 11.3%
viability, T/C (second compound 0.316 µM, first compound 0.1 µM): 12.7%
viability, T/C [6]: 11.5%
viability, T/C (second compound 0.316 µM, first compound 1 µM): 12.2%
viability, T/C (second compound 0.316 µM, first compound 3.16 µM): 13.4%
viability, T/C (second compound 0.316 µM, first compound 10 µM): 10.3%
viability, T/C [7]: 7.08%
viability, T/C (second compound 1 µM, first compound 0.1 µM): 5.8%
viability, T/C [8]: 5.81%
viability, T/C (second compound 1 µM, first compound 1 µM): 6.58%
viability, T/C (second compound 1 µM, first compound 3.16 µM): 9.48%
viability, T/C (second compound 1 µM, first compound 10 µM): 9.07%
viability, T/C [9]: 4.85%
viability, T/C (second compound 3.16 µM, first compound 0.1 µM): 4.57%
viability, T/C [10]: 5.54%
viability, T/C (second compound 3.16 µM, first compound 1 µM): 5.93%
viability, T/C (second compound 3.16 µM, first compound 3.16 µM): 7.14%
viability, T/C (second compound 3.16 µM, first compound 10 µM): 8.52%
viability, T/C [11]: 0.11%
viability, T/C (second compound 10 µM, first compound 0.1 µM): 0.14%
viability, T/C [12]: 0.14%
viability, T/C (second compound 10 µM, first compound 1 µM): 0.16%
viability, T/C (second compound 10 µM, first compound 3.16 µM): 2.33%
viability, T/C (second compound 10 µM, first compound 10 µM): 0.13%

Reference: PubChem BioAssay AID2060488 (Molecular Pharmacology Branch, DTP, NCI, 2025)
